Reference: patent US10202361B2, “Pyridazinones as herbicides” (E I DU PONT DE NEMOURS AND COMPANY, priority 2014, dated 2019)

Legend:
Assay in all cases: Test C pre-/postemergence greenhouse herbicide test
Format in all cases: in vivo
[1] = test system: nutsedge, yellow (yellow nutsedge, Cyperus esculentus); details: Cyperus, post-emergence, Nutsedge, Yellow, Postemergence, read-out: Plant response rating
Method in brief: (§1)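 Seeds sown in loam soil–sand blend were treated preemergence; plants at 2 to 18 cm (1- to 4-leaf stage) in peat-based medium were treated postemergence. Test chemicals were formulated in a non-phytotoxic solvent mixture with surfactant. After 13 to 15 d in greenhouse, injury was rated visually versus controls, 0 (no effect) to 100 (complete control).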

soybean (Glycine max) = details: Glycine max, post-emergence, Soybean, Postemergence, read-out: Plant response rating
Method in brief: as §1

corn (Zea mays) = details: Zea mays, post-emergence, Corn, Postemergence, read-out: Plant response rating
Method in brief: as §1

[2] = test system: velvetleaf (Abutilon theophrasti); details: Abutilon theophrasti, post-emergence, Velvetleaf, Postemergence, read-out: Plant response rating
Method in brief: as §1

[3] = test system: ryegrass, Italian (Italian ryegrass, Lolium multiflorum); details: Lolium multiflorum, post-emergence, Ryegrass, Italian, Postemergence, read-out: Plant response rating
Method in brief: as §1

kochia (Kochia scoparia) = details: Postemergence
Method in brief: as §1

[4] = test system: lambsquarters (Chenopodium album); details: Postemergence
Method in brief: as §1

[5] = test system: waterhemp (common waterhemp, Amaranthus rudis); details: Waterhemp, Postemergence
Method in brief: as §1

[6] = test system: foxtail, giant (giant foxtail, Setaria faberii); details: Setaria faberi, post-emergence, Foxtail, Giant, Postemergence, read-out: Plant response rating
Method in brief: as §1

[7] = test system: blackgrass (Alopecurus myosuroides); details: Alopecurus myosuroides, post-emergence, Blackgrass, Postemergence, read-out: Plant response rating
Method in brief: as §1

[8] = test system: galium (catchweed bedstraw, Galium aparine); details: post-emergence, Galium, Postemergence, read-out: Plant response rating
Method in brief: as §1

Question: For `Cc1cc(Oc2ccnc(C(F)(F)F)c2)nn(-c2ccc(C(F)(F)F)cc2)c1=O` [Compound 6, 4-methyl-2-[4-(trifluoromethyl)phenyl]-6-[[2-(trifluoromethyl)-4-pyridinyl]oxy]-3(2H)-pyridazinone], which pest or weed control at 31 g/ha ([1]; 31 g ai/ha) is on record?
Answer: 5%

Question: And the pest or weed control at 62 g/ha ([1]; 62 g ai/ha)?
Answer: 5%

Question: And the pest or weed control at 125 g/ha ([1]; 125 g ai/ha)?
Answer: 5%

Question: And the pest or weed control at 250 g/ha ([1]; 250 g ai/ha)?
Answer: 15%

Question: And the plant injury at 31 g/ha (soybean (Glycine max); 31 g ai/ha)?
Answer: 35%

Question: And the plant injury at 62 g/ha (soybean (Glycine max); 62 g ai/ha)?
Answer: 50%

Question: And the plant injury at 125 g/ha (soybean (Glycine max); 125 g ai/ha)?
Answer: 50%

Question: What about the plant injury at 250 g/ha (soybean (Glycine max); 250 g ai/ha) of the same molecule?
Answer: 65%

Question: What about the plant injury at 31 g/ha (corn (Zea mays); 31 g ai/ha) of the same molecule?
Answer: 15%

Question: What about the plant injury at 62 g/ha (corn (Zea mays); 62 g ai/ha) of the same molecule?
Answer: 25%

Question: What about the plant injury at 125 g/ha (corn (Zea mays); 125 g ai/ha) of the same molecule?
Answer: 25%

Question: And the plant injury at 250 g/ha (corn (Zea mays); 250 g ai/ha)?
Answer: 35%

Question: And the pest or weed control at 31 g/ha ([2]; 31 g ai/ha)?
Answer: 45%

Question: And the pest or weed control at 62 g/ha ([2]; 62 g ai/ha)?
Answer: 45%

Question: And the pest or weed control at 125 g/ha ([2]; 125 g ai/ha)?
Answer: 55%

Question: And the pest or weed control at 250 g/ha ([2]; 250 g ai/ha)?
Answer: 95%

Question: And the pest or weed control at 31 g/ha ([3]; 31 g ai/ha)?
Answer: 5%

Question: And the pest or weed control at 62 g/ha ([3]; 62 g ai/ha)?
Answer: 10%

Question: And the pest or weed control at 125 g/ha ([3]; 125 g ai/ha)?
Answer: 15%

Question: What about the pest or weed control at 250 g/ha ([3]; 250 g ai/ha) of the same molecule?
Answer: 35%

Question: And the Plant response rating (kochia (Kochia scoparia); 31 g ai/ha)?
Answer: 90

Question: And the Plant response rating (kochia (Kochia scoparia); 62 g ai/ha)?
Answer: 90

Question: What about the Plant response rating (kochia (Kochia scoparia); 125 g ai/ha) of the same molecule?
Answer: 90

Question: What about the Plant response rating (kochia (Kochia scoparia); 250 g ai/ha) of the same molecule?
Answer: 95

Question: And the Plant response rating ([4]; 31 g ai/ha)?
Answer: 75

Question: What about the Plant response rating ([4]; 62 g ai/ha) of the same molecule?
Answer: 90

Question: And the Plant response rating ([4]; 125 g ai/ha)?
Answer: 95

Question: And the Plant response rating ([4]; 250 g ai/ha)?
Answer: 95

Question: And the Plant response rating ([5]; 31 g ai/ha)?
Answer: 95

Question: What about the Plant response rating ([5]; 62 g ai/ha) of the same molecule?
Answer: 98

Question: What about the Plant response rating ([5]; 125 g ai/ha) of the same molecule?
Answer: 98

Question: What about the Plant response rating ([5]; 250 g ai/ha) of the same molecule?
Answer: 98

Question: And the pest or weed control at 31 g/ha ([6]; 31 g ai/ha)?
Answer: 25%

Question: And the pest or weed control at 62 g/ha ([6]; 62 g ai/ha)?
Answer: 35%

Question: And the pest or weed control at 125 g/ha ([6]; 125 g ai/ha)?
Answer: 65%

Question: What about the pest or weed control at 250 g/ha ([6]; 250 g ai/ha) of the same molecule?
Answer: 85%

Question: What about the pest or weed control at 31 g/ha ([7]; 31 g ai/ha) of the same molecule?
Answer: 30%

Question: What about the pest or weed control at 62 g/ha ([7]; 62 g ai/ha) of the same molecule?
Answer: 35%

Question: What about the pest or weed control at 125 g/ha ([7]; 125 g ai/ha) of the same molecule?
Answer: 35%

Question: And the pest or weed control at 250 g/ha ([7]; 250 g ai/ha)?
Answer: 50%

Question: And the pest or weed control at 31 g/ha ([8]; 31 g ai/ha)?
Answer: 90%

Question: What about the pest or weed control at 62 g/ha ([8]; 62 g ai/ha) of the same molecule?
Answer: 90%

Question: What about the pest or weed control at 125 g/ha ([8]; 125 g ai/ha) of the same molecule?
Answer: 90%

Question: What about the pest or weed control at 250 g/ha ([8]; 250 g ai/ha) of the same molecule?
Answer: 90%
